Measured values from ChEMBL document CHEMBL1201862, “PubChem BioAssay data set” (2004).
Calls of active or inactive are those of the source.

Legend:
[1] = HEp-2 cell cytotoxicity, dose response, cytotoxicity control for RSV inhibitor project, HTS (AID 2410); assay type: functional; settings: human respiratory syncytial virus
[2] = inhibitors of intracellular T. cruzi replication, confirmation, NIH3T3 host cells, beta-gal luminescence (AID 2044); assay type: functional, cell-based;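 further: intracellular parasites grown in NIH/3T3 mouse fibroblasts as host cells; luminescent beta-galactosidase reporter signal from transgenic T. cruzi replicating inside host cells; inhibitors lower the luminescence signal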
[3] = cytotoxicity toward NIH3T3 fibroblasts, dose response, counter-screen, cell-based, ATP luminescence, mouse fibroblasts (AID 2010); assay type: functional;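 further: cells exposed to compound for about 90 hours before reading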
Cytochrome P450 3A4 = Cytochrome P450 3A4 (Homo sapiens, UniProt P08684);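 further: CYP3A4 tested as one member of a cytochrome P450 panel screen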
Cytochrome P450 2C19 = Cytochrome P450 2C19 (Homo sapiens, UniProt P33261); assay: Cytochrome panel assay with activity outcomes. Panel member name: p450-cyp2c19 Compounds with AC50 equal or less than 10 uM are considered active; assay type: functional
[4] = target: T1, Corticotropin-releasing factor receptor 2/Corticotropin-releasing factor-binding protein (Homo sapiens, UniProt P24387+Q13324); assay: activators of CRF receptor 2 with binding protein – uHTS hits, confirmation (AID 602473); assay type: functional; settings: read-out: EC50_Mean
T1 sequence (Q13324 whole entry): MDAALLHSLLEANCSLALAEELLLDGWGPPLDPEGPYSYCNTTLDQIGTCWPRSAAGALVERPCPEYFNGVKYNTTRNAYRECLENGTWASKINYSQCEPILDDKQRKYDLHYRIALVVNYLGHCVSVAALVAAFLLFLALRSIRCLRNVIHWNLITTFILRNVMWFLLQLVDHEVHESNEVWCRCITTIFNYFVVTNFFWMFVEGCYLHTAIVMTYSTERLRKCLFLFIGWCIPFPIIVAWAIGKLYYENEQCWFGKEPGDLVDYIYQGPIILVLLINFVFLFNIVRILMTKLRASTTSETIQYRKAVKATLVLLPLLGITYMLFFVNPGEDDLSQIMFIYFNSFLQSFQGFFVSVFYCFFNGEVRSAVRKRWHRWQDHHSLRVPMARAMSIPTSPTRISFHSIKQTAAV
T1 sequence (P24387 whole entry): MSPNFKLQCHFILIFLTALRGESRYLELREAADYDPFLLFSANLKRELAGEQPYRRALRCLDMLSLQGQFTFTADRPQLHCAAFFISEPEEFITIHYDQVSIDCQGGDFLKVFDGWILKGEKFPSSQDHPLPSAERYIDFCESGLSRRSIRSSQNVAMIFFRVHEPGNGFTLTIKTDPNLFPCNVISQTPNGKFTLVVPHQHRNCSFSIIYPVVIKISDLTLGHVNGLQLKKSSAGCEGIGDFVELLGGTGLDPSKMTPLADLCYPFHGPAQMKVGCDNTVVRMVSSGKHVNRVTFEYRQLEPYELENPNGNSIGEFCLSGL

H4 = assay: Luminescence Cell-Based Dose Response HTS to Identify Activators of 5'UTR Stem-Loop Driven Prion Protein mRNA Translation in H4 Neuroglioblastoma Cells. [Related pubchem assays: 1829 (Project Summary), 1814 (Primary HTS)]; assay type: functional; settings: Homo sapiens
[5] = Luminescence Cell-Based Dose Response HTS to Identify Activators of Luciferase Translation or Activity in H4 […] Cells. [Related pubchem assays: 1829 (Project Summary), 1814 (Primary HTS)]; assay type: functional

Chain of Cytochrome P450 3A4 (P08684 whole entry): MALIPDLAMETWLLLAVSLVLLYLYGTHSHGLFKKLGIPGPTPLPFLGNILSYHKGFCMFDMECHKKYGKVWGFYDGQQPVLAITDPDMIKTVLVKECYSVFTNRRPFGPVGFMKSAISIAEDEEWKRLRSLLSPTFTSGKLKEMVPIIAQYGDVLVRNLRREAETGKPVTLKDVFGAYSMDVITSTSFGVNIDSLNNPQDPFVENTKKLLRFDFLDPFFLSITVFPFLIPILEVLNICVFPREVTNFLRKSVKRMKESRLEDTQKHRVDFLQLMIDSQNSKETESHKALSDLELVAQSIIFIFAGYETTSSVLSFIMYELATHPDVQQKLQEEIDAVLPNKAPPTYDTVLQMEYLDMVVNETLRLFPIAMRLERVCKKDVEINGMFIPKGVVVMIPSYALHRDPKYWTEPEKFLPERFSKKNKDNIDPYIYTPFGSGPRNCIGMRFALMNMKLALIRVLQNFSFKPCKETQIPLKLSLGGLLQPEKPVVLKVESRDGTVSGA
Chain of Cytochrome P450 2C19 (P33261 whole entry): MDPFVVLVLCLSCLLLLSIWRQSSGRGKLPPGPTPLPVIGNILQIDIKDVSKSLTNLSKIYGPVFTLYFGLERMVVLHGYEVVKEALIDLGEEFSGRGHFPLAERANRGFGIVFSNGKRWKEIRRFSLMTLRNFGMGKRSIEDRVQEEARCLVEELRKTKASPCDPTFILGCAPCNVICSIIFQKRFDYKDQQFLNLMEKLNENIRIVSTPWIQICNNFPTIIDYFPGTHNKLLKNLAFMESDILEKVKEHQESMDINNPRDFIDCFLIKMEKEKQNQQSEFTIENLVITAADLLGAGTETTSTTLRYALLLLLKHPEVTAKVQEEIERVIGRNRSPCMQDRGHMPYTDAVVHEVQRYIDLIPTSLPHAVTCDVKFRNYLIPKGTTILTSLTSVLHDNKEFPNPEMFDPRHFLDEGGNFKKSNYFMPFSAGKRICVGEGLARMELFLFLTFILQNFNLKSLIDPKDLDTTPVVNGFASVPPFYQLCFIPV

For `CC(C)OC(=O)c1ccc(N2CCN(c3ccc(F)cc3)CC2)nc1`, the CC50 [1] was 14.8 µM (active).

For `CCn1c(NCc2cc(Br)ccc2NS(=O)(=O)c2ccc(C)cc2)nc2ccccc21`, the EC50 [2] was 2.61 µM (active) and the EC50 [3] was > 60 µM (not active).

In the case of `COC(=O)Nc1nc(-c2cc(Cl)ccc2Cl)cs1`, the EC50 [2] is reported as 0.572 µM (active) and the EC50 [3] is reported as > 60 µM (not active).

In the case of `CN(Cc1ccco1)c1nc(-c2ccccc2C(F)(F)F)nc2ccccc12`, the AC50 (Cytochrome P450 3A4) is reported as 12.6 µM (inconclusive).

For `CCn1nc(NC(=O)COC)c2cc3cccc(C)c3nc21`, the CC50 [1] was > 50 µM (active).

In the case of `COC(=O)c1ccc(NC(S)=Nc2ccccn2)cc1`, the CC50 [1] is reported as 41.6 µM (active).

In the case of `CCCCCSc1nncc(O)n1`, the AC50 (Cytochrome P450 2C19; read-out: AC50) is reported as 39.8 µM (inconclusive).

With `Cc1c(CN2CCC(CO)(Cc3ccccc3)CC2)c2ccccc2n1C` the EC50 [2] was 2.4 µM (active) and the EC50 [3] was 9.85 µM (active).

With `COc1ccccc1NC(=O)N(Cc1ccco1)Cc1cc2cc(C)cc(C)c2nc1O` the CC50 [1] was 3.83 µM (active).

For `CC1(C)CC(=O)C([C@H]2C3=C(CC(C)(C)CC3=O)Oc3ccccc32)C(=O)C1`, the AC50 (Cytochrome P450 3A4) was 15.8 µM (inconclusive).

In the case of `CO[C@@H]1/C=C\O[C@]2(C)Oc3c(C)c(O)c4c(O)c(cc(O)c4c3C2=O)NC(=O)/C(C)=C\C=C/[C@H](C)[C@@H](O)[C@H](C)[C@H](O)[C@H](C)[C@H](OC(C)=O)[C@@H]1C`, the AC50 (Cytochrome P450 3A4) is reported as 3.98 µM (inconclusive).

With `CCn1nc(C)c(NC(=O)/C=C/c2ccc(OC)c(COc3ccc(Cl)cc3Br)c2)c1C` the EC50 [2] was 0.736 µM (active) and the EC50 [3] was > 60 µM (not active).

With `COc1cc(SC)ccc1C(=O)NCCc1c[nH]c2ccccc12` the CC50 [1] was 19.9 µM (active).

With `CCN1CCc2c(C#N)c(NCc3ccccc3)nc(N(CC)CC)c2C1` the EC50 [2] was 0.426 µM (active) and the EC50 [3] was > 15 µM (not active).

In the case of `Cn1c(=O)c(-c2cc(F)cc(F)c2)nc2cncnc21`, the AC50 (Cytochrome P450 3A4) is reported as 1.26 µM (inconclusive).

With `N#C/C(=C/C=C/c1ccccc1)C(=O)Nc1ccccc1` the EC50 [2] was 8.82 µM (active) and the EC50 [3] was > 60 µM (not active).

In the case of `C=C1CCC[C@]2(C)C[C@H]3OC(=O)C(CN(C)CC(OC)OC)[C@H]3CC12` (some centres undefined), the CC50 [1] is reported as 11.4 µM (active).

For `COc1ccc(C2C(C(=O)c3ccc4c(c3)CC(C)O4)=C(O)C(=O)N2CCN2CCOCC2)cc1` (centres undefined), the AC50 (Cytochrome P450 3A4) was 28.2 µM (inconclusive) and the AC50 (Cytochrome P450 2C19) was “inconclusive”.

In the case of `CCc1ccccc1OCC(=O)Nc1ccc2c(c1)OCCO2`, the CC50 [1] is reported as 35.6 µM (active).

With `Cc1noc(C)c1-c1nccc(N2CCOCC2)n1` the AC50 (Cytochrome P450 2C19; read-out: AC50) was 10 µM (inconclusive).

For `Cc1ccn2cc(-c3cccc(NC(=O)c4cccs4)c3)nc2c1`, the CC50 [1] was 26.1 µM (active).

For `Brc1ccc(C2=Nn3cnnc3SC2)cc1`, the CC50 [1] was 27.9 µM (active).

For `CC(=O)Nc1ccc(-c2csc(NCCc3ccccc3)n2)cc1`, the CC50 [1] was 41.3 µM (active).

With `COc1ccc(S(=O)(=O)N2CCCCCC2)cc1C(=O)N(C)Cc1ccc(Cl)cc1Cl` the EC50 [4] was 5 µM (active).

In the case of `Cc1ccccc1C(=O)Oc1ccc(Br)cc1C(=S)N1CCCC1`, the AC50 (Cytochrome P450 3A4) is reported as 8.91 µM (inconclusive).

In the case of `CC(C)(C)c1ccc(OCC(=O)O)c(Cl)c1`, the AC50 (Cytochrome P450 2C19) is reported as “inconclusive”.

In the case of `Cc1nc(C(=O)NC2CCCCC2)sc1C1(C)CC(c2cccnc2)=NO1` (centres undefined), the EC50 [2] is reported as 1.3 µM (active) and the EC50 [3] is reported as > 60 µM (not active).

For `COc1ccc2cc(CN(Cc3cccnc3)Cc3nnnn3Cc3ccccc3)c(O)nc2c1`, the EC50 [2] was 0.554 µM (active) and the EC50 [3] was > 60 µM (not active).

For `CN1CCN(CCCNC(=O)c2ccc(CSCc3cccc(Cl)c3)o2)CC1`, the AC50 (Cytochrome P450 3A4) was 22.4 µM (inconclusive).

In the case of `c1ccc2c[n+](Cc3ccnc4ccccc34)ccc2c1`, the AC50 (Cytochrome P450 3A4) is reported as 1.26 µM (inconclusive).

In the case of `O=C(NCCOc1ccccc1F)c1cccc(S(=O)(=O)N2CCN(c3ccccc3)CC2)c1`, the CC50 [1] is reported as 22.2 µM (active).

In the case of `CNc1ccnc(-c2ccccc2C)n1`, the AC50 (Cytochrome P450 3A4) is reported as 15.8 µM (inconclusive) and the AC50 (Cytochrome P450 2C19; read-out: AC50) is reported as 31.6 µM (inconclusive).

In the case of `CC[C@@H]1OC(=O)[C@H](C)[C@H](O[C@@H]2C[C@](C)(OC)[C@H](O)[C@H](C)O2)[C@H](C)[C@H](O[C@@H]2O[C@@H](C)C[C@@H](N(C)C)[C@@H]2O)[C@](C)(O)C[C@H](C)C(=NOCOCCOC)[C@H](C)[C@H](O)[C@]1(C)O`, the AC50 (Cytochrome P450 3A4) is reported as 12.6 µM (inconclusive).

With `COc1ccc(F)cc1C(=O)C1CCCN(Cc2cnc(N3CCCC3)s2)C1` (centres undefined) the EC50 [2] was 0.303 µM (active) and the EC50 [3] was > 60 µM (not active).

In the case of `Cn1c(N)c(C(=O)Nc2ccc3ccccc3c2)sc1=S`, the EC50 (H4) is reported as 0.279 µM (active) and the EC50 [5] is reported as 0.117 µM (active).

In the case of `Cc1ccc(-c2csc3ncnc(NCCN4CCOCC4)c23)cc1`, the AC50 (Cytochrome P450 3A4) is reported as 1.12 µM (inconclusive).

With `O=C(Nc1ccc(Br)cc1)c1c[nH]cn1` the EC50 (H4) was 28.8 µM (active) and the EC50 [5] was 34.8 µM (active).

For `C=CC[N+]1(CC#CCOC(c2ccccc2)c2ccccc2)CCOCC1.[Cl-]`, the AC50 (Cytochrome P450 2C19) was “inconclusive”.

With `O=C(Cn1cnc2ccccc21)NC(c1ccccc1)c1ccccc1` the AC50 (Cytochrome P450 2C19; read-out: AC50) was 20 µM (inconclusive).

For `CCOC(=O)c1sc2nc3n(c(=O)c2c1C)CCC(C)CC3` (centres undefined), the CC50 [1] was 38.3 µM (active).

With `Cc1cc2c(cc1S(=O)(=O)CCC(=O)NC1CCCCC1C)OCC(=O)N2` (centres undefined) the EC50 [4] was > 53 µM (inactive).

For `O=[N+]([O-])c1ccc(S(=O)(=O)NCC(c2ccco2)N2CCc3ccccc3C2)cc1` (centres undefined), the EC50 [2] was 1.86 µM (active) and the EC50 [3] was > 60 µM (not active).

For `CC1CCN(C(=O)CSc2nc3ccccc3c(=O)n2Cc2ccc3c(c2)OCO3)CC1`, the CC50 [1] was 33.5 µM (active).

With `C[C@H]1O[C@@H](O[C@H]2CC[C@@]3(C)C(CC[C@]4(C)C3C=C[C@]35OC[C@@]6(CCC(C)(C)C[C@H]63)[C@@H](O)C[C@]54C)[C@]2(C)CO)[C@H](O)[C@@H](O[C@@H]2O[C@H](CO)[C@@H](O)[C@H](O)[C@H]2O)[C@H]1O` (some centres undefined) the EC50 [4] was 9.4 µM (active).

For `CCOC(=O)c1cn(Cc2ccccc2)c(C(=O)OC(C)(C)C)c1O`, the EC50 [4] was 5.22 µM (active).

For `CCCCCCc1cc2cc(C(=N)NNC(=O)c3ccncc3)c(=O)oc2cc1O`, the EC50 [4] was 1.11 µM (active).

In the case of `O=[N+]([O-])c1ccccc1/C=C/C=N/Nc1ccc(S(=O)(=O)Nc2ccc(Cl)cc2)cc1[N+](=O)[O-]`, the EC50 [2] is reported as 1.35 µM (active) and the EC50 [3] is reported as > 60 µM (not active).

In the case of `O=C(NCCCN1CCOCC1)c1cc(C(=O)C2CC2)c[nH]1`, the AC50 (Cytochrome P450 2C19; read-out: AC50) is reported as 3.98 µM (inconclusive).

In the case of `CCOc1cc(/C=N/NC(N)=S)cc(Br)c1OCc1ccccc1C`, the EC50 [2] is reported as 0.114 µM (active) and the EC50 [3] is reported as > 60 µM (inconclusive).

With `CC(=O)c1cccc(/N=C/C2=C(O)OC3(CCCCC3)OC2=O)c1` the AC50 (Cytochrome P450 3A4) was 35.5 µM (inconclusive) and the AC50 (Cytochrome P450 2C19) was “inconclusive”.

For `CCOc1nn(-c2ccccc2)c(O)c1/C=N/c1ccc(Cl)cc1`, the AC50 (Cytochrome P450 3A4) was 20 µM (inconclusive).

With `C[C@]12CCC3C(CCC4=C/C(=N/OCC(=O)NC(CCC(N)=O)C(=O)O)CC[C@@]43C)C1CCC2O` (some centres undefined) the CC50 [1] was 22.6 µM (active).
